Source: patent US9708314B2, “Heterocyclic amide compound” (NISSAN CHEMICAL INDUSTRIES, LTD., priority 2013, dated 2017)

How the values were obtained:
Assay type in all cases: in vivo
[1] = tested on: Stellaria media; test: Test Example 4: herbicidal effect by application to foliage (diluvial soil, plastic box); conditions: 320 g/ha; for herbicidal effect, P (Stellaria media): application to foliage
Procedure, shortened: (§1)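 Emulsion-formulated compound, diluted to a predetermined g/ha dose, applied by small sprayer to leaves and stems of 14-day-old seedlings grown in sterilized diluvial soil. Effect rated on 0–5 herbicidal-ratio scale three weeks on.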

[2] = tested on: Chenopodium album; test: as above; conditions: 320 g/ha; for herbicidal effect, O (Chenopodium album): application to foliage
Procedure, shortened: as §1

[3] = tested on: Abutilon theophrasti; test: as above; conditions: 320 g/ha; for herbicidal effect, M (Abutilon theophrasti): application to foliage
Procedure, shortened: as §1

[4] = tested on: Echinochloa crus-galli var. crus-galli; test: as above; conditions: 320 g/ha; for herbicidal effect, H (Echinochloa crus-galli var. crus-galli): application to foliage
Procedure, shortened: as §1

[5] = tested on: Galium spurium; test: as above; conditions: 320 g/ha; for herbicidal effect, Q (Galium spurium): application to foliage
Procedure, shortened: as §1

[6] = tested on: Apera spica-venti.; test: as above; conditions: 320 g/ha; for herbicidal effect, L (Apera spica-venti.): application to foliage
Procedure, shortened: as §1

[7] = tested on: Lolium multiflorum Lam.; test: as above; conditions: 320 g/ha; for herbicidal effect, K (Lolium multiflorum Lam.): application to foliage
Procedure, shortened: as §1

[8] = tested on: Avena fatua; test: as above; conditions: 320 g/ha; for herbicidal effect, I (Avena fatua): application to foliage
Procedure, shortened: as §1

[9] = tested on: Veronica persica; test: as above; conditions: 320 g/ha; for herbicidal effect, R (Veronica persica): application to foliage
Procedure, shortened: as §1

[10] = tested on: Amaranthus retroflexus; test: as above; conditions: 320 g/ha; for herbicidal effect, N (Amaranthus retroflexus): application to foliage
Procedure, shortened: as §1

[11] = tested on: Digitaria ciliaris; test: as above; conditions: 320 g/ha; for herbicidal effect, F (Digitaria ciliaris): application to foliage
Procedure, shortened: as §1

[12] = tested on: Setaria viridis; test: as above; conditions: 320 g/ha; for herbicidal effect, G (Setaria viridis): application to foliage
Procedure, shortened: as §1

[13] = tested on: Alopecurus myosuroides; test: as above; conditions: 320 g/ha; for herbicidal effect, J (Alopecurus myosuroides): application to foliage
Procedure, shortened: as §1

[14] = tested on: Echinochloa oryzacola Vasing.; test: Test Example 1: herbicidal activity, application before weed generation in submerged conditions; conditions: Seventeenth Table; for A: Echinochloa oryzicola Vasing. (herbicidal effect grade): Application herbicide amount 320 g/ha
Procedure, shortened: (§2)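 Rating, on a six-step scale from almost no effect (0) to almost completely withered (5), was made three weeks after pre-emergence treatment. Treatment was surface application to flooded pots at g/ha rates, with plants kept at 25° C. to 30° C.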

[15] = tested on: Monochoria vaginalis; test: as above; conditions: Seventeenth Table; for C: Monochoria vaginalis (herbicidal effect grade): Application herbicide amount 320 g/ha
Procedure, shortened: as §2

[16] = tested on: Scirpus juncoides; test: as above; conditions: Seventeenth Table; for B: Scirpus juncoides (herbicidal effect grade): Application herbicide amount 320 g/ha
Procedure, shortened: as §2

[17] = tested on: Triticum aestivum; test: Test Example 4: effect on crop by application to foliage (diluvial soil, plastic box); conditions: 320 g/ha; for effect on crop, e (Triticum aestivum): application to foliage
Procedure, shortened: as §1

[18] = tested on: Glycine max; test: as above; conditions: 320 g/ha; for effect on crop, c (Glycine max): application to foliage
Procedure, shortened: as §1

[19] = tested on: Brassica campestris L.; test: as above; conditions: 320 g/ha; for effect on crop, g (Brassica campestris L.): application to foliage
Procedure, shortened: as §1

[20] = tested on: Beta vulgaris ssp. vulgaris; test: as above; conditions: 320 g/ha; for effect on crop, f (Beta vulgaris ssp. vulgaris): application to foliage
Procedure, shortened: as §1

[21] = tested on: Zea mays; test: as above; conditions: 320 g/ha; for effect on crop, b (Zea mays): application to foliage
Procedure, shortened: as §1

[22] = tested on: directly sowed Oryza sativa; test: as above; conditions: 320 g/ha; for effect on crop, d (directly sowed Oryza sativa): application to foliage
Procedure, shortened: as §1

[23] = application herbicide amount 320 g/ha

Row | SMILES | A: Echinochloa oryzicola Vasing. (herbicidal effect grade) [14] | C: Monochoria vaginalis (herbicidal effect grade) [15] | B: Scirpus juncoides (herbicidal effect grade) [16] | herbicidal effect, P (Stellaria media) [1] | herbicidal effect, O (Chenopodium album) [2] | herbicidal effect, M (Abutilon theophrasti) [3] | herbicidal effect, H (Echinochloa crus-galli var. crus-galli) [4] | herbicidal effect, Q (Galium spurium) [5] | herbicidal effect, L (Apera spica-venti.) [6] | herbicidal effect, K (Lolium multiflorum Lam.) [7] | herbicidal effect, I (Avena fatua) [8] | herbicidal effect, R (Veronica persica) [9] | herbicidal effect, N (Amaranthus retroflexus) [10] | herbicidal effect, F (Digitaria ciliaris) [11] | herbicidal effect, G (Setaria viridis) [12] | herbicidal effect, J (Alopecurus myosuroides) [13] | effect on crop, e (Triticum aestivum) [17] | effect on crop, c (Glycine max) [18] | effect on crop, g (Brassica campestris L.) [19] | effect on crop, f (Beta vulgaris ssp. vulgaris) [20] | further results
1 | Cc1ccc(-c2nnc3c(C(=O)Nc4nnnn4C)ccc(C(F)(F)F)n23)cc1 [2-042] | 5 (Herbicidal ratio of 90% or more (almost completely withered)) | 4 (Herbicidal ratio of 70% or more and less than 90%) | 4 (Herbicidal ratio of 70% or more and less than 90%) | – | – | – | – | – | – | – | – | – | – | – | – | – | – | – | – | – | P (Stellaria media) herbicidal effect grade ([1]; foliage application): 3 (Herbicidal ratio of 40% or more and less than 70%); O (Chenopodium album) herbicidal effect grade ([2]; foliage application): 5 (Herbicidal ratio of 90% or more (almost completely withered)); M (Abutilon theophrasti) herbicidal effect grade ([3]; foliage application): 5 (Herbicidal ratio of 90% or more (almost completely withered)); H (Echinochloa crus-galli var. crus-galli) herbicidal effect grade ([4]; foliage application): 5 (Herbicidal ratio of 90% or more (almost completely withered)); Q (Galium spurium) herbicidal effect grade ([5]; foliage application): 1 (Herbicidal ratio of 5% or more and less than 20%); L (Apera spica-venti.) herbicidal effect grade ([6]; foliage application): 0 (Herbicidal ratio of 5% or less (almost no effect)); K (Lolium multiflorum Lam.) herbicidal effect grade ([7]; foliage application): 1 (Herbicidal ratio of 5% or more and less than 20%); I (Avena fatua) herbicidal effect grade ([8]; foliage application): 2 (Herbicidal ratio of 20% or more and less than 40%); R (Veronica persica) herbicidal effect grade ([9]; foliage application): 5 (Herbicidal ratio of 90% or more (almost completely withered)); N (Amaranthus retroflexus) herbicidal effect grade ([10]; foliage application): 5 (Herbicidal ratio of 90% or more (almost completely withered)); F (Digitaria ciliaris) herbicidal effect grade ([11]; foliage application): 5 (Herbicidal ratio of 90% or more (almost completely withered)); G (Setaria viridis) herbicidal effect grade ([12]; foliage application): 5 (Herbicidal ratio of 90% or more (almost completely withered)); J (Alopecurus myosuroides) herbicidal effect grade ([13]; foliage application): 2 (Herbicidal ratio of 20% or more and less than 40%); e (Triticum aestivum) effect on crop grade ([17]; foliage application): 0 (Herbicidal ratio of 5% or less (almost no effect)); c (Glycine max) effect on crop grade ([18]; foliage application): 0 (Herbicidal ratio of 5% or less (almost no effect)); g (Brassica campestris L.) effect on crop grade ([19]; foliage application): 2 (Herbicidal ratio of 20% or more and less than 40%); f (Beta vulgaris ssp. vulgaris) effect on crop grade ([20]; foliage application): 4 (Herbicidal ratio of 70% or more and less than 90%); b (Zea mays) effect on crop grade ([21]; foliage application): 4 (Herbicidal ratio of 70% or more and less than 90%); d (directly sowed Oryza sativa) effect on crop grade ([22]; foliage application): 3 (Herbicidal ratio of 40% or more and less than 70%)
2 | Cn1nnnc1NC(=O)c1ccc(C(F)(F)F)n2c(CO)nnc12 [2-108] | – | – | – | 5 (Herbicidal ratio of 90% or more (almost completely withered)) | 5 (Herbicidal ratio of 90% or more (almost completely withered)) | 5 (Herbicidal ratio of 90% or more (almost completely withered)) | 5 (Herbicidal ratio of 90% or more (almost completely withered)) | 4 (Herbicidal ratio of 70% or more and less than 90%) | 0 (Herbicidal ratio of 5% or less (almost no effect)) | 0 (Herbicidal ratio of 5% or less (almost no effect)) | 1 (Herbicidal ratio of 5% or more and less than 20%) | 5 (Herbicidal ratio of 90% or more (almost completely withered)) | 5 (Herbicidal ratio of 90% or more (almost completely withered)) | 4 (Herbicidal ratio of 70% or more and less than 90%) | 3 (Herbicidal ratio of 40% or more and less than 70%) | 0 (Herbicidal ratio of 5% or less (almost no effect)) | 1 (Herbicidal ratio of 5% or more and less than 20%) | 0 (Herbicidal ratio of 5% or less (almost no effect)) | 5 (Herbicidal ratio of 90% or more (almost completely withered)) | 5 (Herbicidal ratio of 90% or more (almost completely withered)) | A (Echinochloa oryzicola Vasing.) herbicidal ratio grade [14, 23]: 4 (Herbicidal ratio of 70% or more and less than 90%); C (Monochoria vaginalis) herbicidal ratio grade [15, 23]: 2 (Herbicidal ratio of 20% or more and less than 40%); B (Scirpus juncoides) herbicidal ratio grade [16, 23]: 3 (Herbicidal ratio of 40% or more and less than 70%); effect on crop, b (Zea mays) [21]: 4 (Herbicidal ratio of 70% or more and less than 90%); effect on crop, d (directly sowed Oryza sativa) [22]: 4 (Herbicidal ratio of 70% or more and less than 90%)
3 | C#CCN(C)c1nnc2c(C(=O)Nc3nnnn3C)ccc(C(F)(F)F)n12 [2-094] | 5 (Herbicidal ratio of 90% or more (almost completely withered)) | 5 (Herbicidal ratio of 90% or more (almost completely withered)) | 5 (Herbicidal ratio of 90% or more (almost completely withered)) | 5 (Herbicidal ratio of 90% or more (almost completely withered)) | 5 (Herbicidal ratio of 90% or more (almost completely withered)) | 5 (Herbicidal ratio of 90% or more (almost completely withered)) | 5 (Herbicidal ratio of 90% or more (almost completely withered)) | 3 (Herbicidal ratio of 40% or more and less than 70%) | 3 (Herbicidal ratio of 40% or more and less than 70%) | 1 (Herbicidal ratio of 5% or more and less than 20%) | 2 (Herbicidal ratio of 20% or more and less than 40%) | 4 (Herbicidal ratio of 70% or more and less than 90%) | 4 (Herbicidal ratio of 70% or more and less than 90%) | 4 (Herbicidal ratio of 70% or more and less than 90%) | 4 (Herbicidal ratio of 70% or more and less than 90%) | 1 (Herbicidal ratio of 5% or more and less than 20%) | 1 (Herbicidal ratio of 5% or more and less than 20%) | 1 (Herbicidal ratio of 5% or more and less than 20%) | 4 (Herbicidal ratio of 70% or more and less than 90%) | 5 (Herbicidal ratio of 90% or more (almost completely withered)) | effect on crop, b (Zea mays) [21]: 3 (Herbicidal ratio of 40% or more and less than 70%); effect on crop, d (directly sowed Oryza sativa) [22]: 4 (Herbicidal ratio of 70% or more and less than 90%)
